We go through one molecule from ChEMBL document CHEMBL5537164, “Discovery of Potent, Orally Bioavailable, Tricyclic NLRP3 Inhibitors” (J Med Chem, 2024).

Structures are written as SMILES.

One may read the half-life as how long it takes for the measured level to halve. What is called bioavailability is dose-corrected exposure relative to a reference, in per cent. As usually defined, the inhibition in vivo is the relative decrease from the control value, in per cent. For orientation: IC50 means the concentration that inhibits the measured activity by half. One may read the solubility as the concentration that dissolves in the medium under given conditions.

Data set [1] in a line: Dose normalized AUC in C57BL/6 mouse at 3 mg/kg, po measured after 24 hrs by LC-MS/MS analysis. It counts as ADME, organism-based. The following applies: in vivo.
Data set [2] can be described thus: Half-life in C57BL/6 mouse at 3 mg/kg, po or 1 mg/kg, iv measured after 24 hrs by LC-MS/MS analysis. In kind it is ADME, organism-based. As to conditions: in vivo.
A short description of data set [3]: Oral bioavailability in Sprague-Dawley rat at 10 mg/kg measured after 24 hrs by LC-MS/MS analysis. It counts as ADME, organism-based. The following applies: in vivo.
The nature of data set [4]: In vivo inhibition of NLRP3 in LPS/ATP-induced C57BL/6 mouse model of acute peritonitis assessed as reduction in IL-1beta level at 50 mg/kg, po preadministered with compound for 1 hrs followed by LPS stimulation for 2 hrs and measured 15 mins after ATP addition by ELISA relative to control. It counts as functional. The following applies: time 3.25 hrs. Background: In an ELISA, binding on a coated surface is turned into a signal by an enzyme label.

The target in a further data set is Cytochrome P450 2D6 (Homo sapiens, UniProt P10635). The data set is described as follows: Inhibition of CYP2D6 (unknown origin). It counts as ADME.
Data set [5] in a line: Equilibrium solubility of compound in DMSO at pH 6.8 by shake flask method. In kind it is physicochemical.
Data set [6] is described as follows: Drug metabolism in dog liver microsomes assessed as N-demethylation of piperidine ring mediated metabolite formation. In kind it is ADME, Canis lupus familiaris, Microsome.
Data set [7] is described as follows: In vivo inhibition of NLRP3 in LPS/ATP-induced C57BL/6 mouse model of acute peritonitis assessed as reduction in IL-1beta level at 100 mg/kg, po preadministered with compound for 1 hrs followed by LPS stimulation for 2 hrs and measured 15 mins after ATP addition by ELISA relative to control. In kind it is functional. The following applies: time 3.25 hrs.
For a further data set, the target named is Cytochrome P450 3A4 (Homo sapiens, UniProt P08684). The data set is described as follows: Inhibition of CYP3A4 (unknown origin). In kind it is ADME.
Data set [8] is described as follows: Oral bioavailability in C57BL/6 mouse at 3 mg/kg measured after 24 hrs by LC-MS/MS analysis. In kind it is ADME, organism-based. As to conditions: in vivo.
Data set [9] can be described thus: Clearance in rat liver microsomes. In kind it is ADME, Microsome. As to conditions: read-out: CLH. Background: Liver microsomes are a subcellular fraction often used to study metabolism.

Sequence of Cytochrome P450 3A4 (P08684 whole entry): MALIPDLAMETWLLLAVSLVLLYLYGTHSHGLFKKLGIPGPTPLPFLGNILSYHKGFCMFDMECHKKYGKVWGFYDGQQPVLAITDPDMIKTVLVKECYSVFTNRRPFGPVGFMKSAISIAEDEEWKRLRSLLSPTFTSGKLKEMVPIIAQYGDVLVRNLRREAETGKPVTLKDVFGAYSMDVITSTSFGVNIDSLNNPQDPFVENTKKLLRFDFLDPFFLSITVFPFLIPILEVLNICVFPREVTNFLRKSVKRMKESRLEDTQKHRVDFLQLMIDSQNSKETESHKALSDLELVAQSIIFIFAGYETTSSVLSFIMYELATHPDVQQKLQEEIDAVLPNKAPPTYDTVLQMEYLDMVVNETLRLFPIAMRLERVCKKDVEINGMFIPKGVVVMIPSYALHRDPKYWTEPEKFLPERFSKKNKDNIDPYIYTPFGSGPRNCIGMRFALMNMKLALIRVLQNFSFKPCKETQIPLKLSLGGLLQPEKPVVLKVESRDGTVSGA
Sequence of Cytochrome P450 2D6 (P10635 whole entry): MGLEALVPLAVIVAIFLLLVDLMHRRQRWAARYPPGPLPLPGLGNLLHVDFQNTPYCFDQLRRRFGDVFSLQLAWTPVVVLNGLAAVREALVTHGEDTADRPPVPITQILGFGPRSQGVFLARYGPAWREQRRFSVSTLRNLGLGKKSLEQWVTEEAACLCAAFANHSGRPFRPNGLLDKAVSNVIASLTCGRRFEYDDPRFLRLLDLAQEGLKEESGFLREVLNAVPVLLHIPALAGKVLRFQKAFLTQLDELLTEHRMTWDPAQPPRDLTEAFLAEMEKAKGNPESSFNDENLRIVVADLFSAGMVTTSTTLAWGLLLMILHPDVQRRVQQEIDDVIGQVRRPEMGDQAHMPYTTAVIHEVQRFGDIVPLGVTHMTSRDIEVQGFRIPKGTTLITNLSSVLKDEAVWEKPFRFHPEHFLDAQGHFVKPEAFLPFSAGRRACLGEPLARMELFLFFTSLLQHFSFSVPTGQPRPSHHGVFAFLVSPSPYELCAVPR

With `CN1CCC[C@@H](NC(=O)Cn2nc(C(C)(C)O)n3c(cc4sc(Cl)cc43)c2=O)C1`, in data set [1], the AUC/dose worked out at 235 nmol·h/L. This molecule gave a half-life in [2] of 1 h. Further, the bioavailability stood at 63% in [3] and 36% in data set [8]. For the same molecule, in data set [4], the inhibition in vivo at 50 mg/kg came to 90%. Besides, the IC50 at Cytochrome P450 2D6 and at Cytochrome P450 3A4 was more than 25 µM in each case. Moreover, the solubility in data set [5] was more than 1000 µM. The Drug metabolism result in data set [6] is given as “Metabolite_Detected”. Moreover, in data set [7], the inhibition in vivo at 100 mg/kg amounted to 98%. For the same molecule, the microsomal CLint in data set [9] was found to be 100 µL/min/mg.
